Laboratory results published in patent US5733904A, “Method for prevention and treatment of viral infectious diseases for viral suppression” (priority 1996, dated 1998).

How the values were obtained:
rabbit plasma = test: Blood coagulation time (APTT, PT); parameters: species or system rabbit (male, Japanese white); conditions: for PT / APTT: N=4, mean ± S.E.; for PT: control 7.3 ± 0.4; for APTT: control 16.9 ± 0.8
Experimental: a) Blood coagulation time:
Rabbits (male, Japanese white, body weight 2-3 kg, Oriental Yeast Co.) were used. […] After adding the test compound to the resultant plasma, activated partial thromboplastin time (APTT) and prothrombin time (PT) were measured by using a coagulometer (Coagtec, Coagtec TE600, EMRA; KC-10A, Baxter).

[1] = system: myosin light chain kinase; conditions: Cranial Nerve, 45 (9), 819-824, 1993; cited from earlier work
Acute toxicity in mice = test: Acute toxicity in mice; parameters: species or system mouse (Slc: ddy, 5 weeks); conditions: mouse, in vivo, iv, i. v., male
Experimental: (§1) Acute toxicity of the compounds of the present invention were conducted on rats and mice, and low toxicity was confirmed.

[2] = system: Env (gp120) protein, HIV-1 infected MOLT-4 cells; test: Suppressive action on expression of Env (gp120) protein on the surface of cells; type: cell-based; conditions: FIG. 3; Env positive cells after 5 days
Experimental: (Suppressive action on expression of Env (gp120) protein on the surface of cells.)
Cells obtained by culturing MOLT-4 (culture condition: 37° C., 5% CO2 /95% air, RPMI medium (GIBCO Corp.) containing 10% FBS) were adjusted to a preferable number of cells (1×10^5 cells/50 μl ). The cell suspension, 50 μl, (infected with MOLT-4 and HIV-1: M.O.I.=1.0) was put in a 96 hole microplate and cultured for 1 hour to infect the cells.
A solution of the compound shown below, 100 μl, was added in each well and cultured for 5 days. The cultured solution was transferred into a plastic tube (Eppendorf Corp.) and centrifuged to collect the cells. The cells were treated with mouse anti-Env gp120 monoclonal antibody (Replingen Inc.) as a primary antibody and FITC (Fluorescein Isothiocyanate) labelled goat anti-mouse IgG (Cappel Corp.) as a secondary antibody to fluoresce. The number of fluorescent cells was fluoroscopically calculated by counting fluorescent cells according to an indirect fluorescent antibody technique (Techniques in HIV Research, Ed. A. Aldoriny and B. D. Walker, Stokton Press, New York, 1990).
Env positive cells (%) was calculated by the following equation:
Env positive cells (%)=(FITC) positive cells/total cells)×100
Compounds: FAS, H-7 and KN-62.
Control: solution without compound was used.

[3] = system: Herpes simplex virus type I; test: Inhibitory action for plaque formation of Herpes simplex virus type I; type: cell-based; conditions: mean of two, control 51
Experimental: (§2) Experiments were performed according to a method described in Antiviral Chemistry and Chemotherapy, 5 (6), 366-371, 1994 and Experimental Virology, Ed. by NIH Japan alumni assoc., Maruzen Publ. 1982, p. 65-78 or p. 331-340.
(§3) Vero cells cultured in the medium (Dulbecco's modified MEM added with 10% FBS) were detached by trypsin (Sigma Corp.). The detached cells were suspended by 2×10^5 cells/ml in the same medium, and placed in the wells of a 48 hole plate. The plate was incubated at 37° C. under 5% CO2 for about one day to complete a full-sheet of the cells in all wells. After incubation, cultured supernatant was removed. A solution (50 μl) containing the compound diluted with 4-fold stepwise dilution by virus culture medium (MM: Dulbecco's modified MEM added with 2% FBS), was added thereto.
(§4) A viral solution, 50 μl, in which the number of virus (parainfluenza virus or Herpes simplex virus type I) was adjusted to about 50 pfu (plaque forming unit)/50 μl by MM, was added to each well. MM 400 μl containing 1% methylcellulose was added in each well to provide a compound-added test group. A control group was prepared by adding the viral culture medium without adding the test compound.
(§5) The groups were incubated at 37° C. under 5% CO2 for three days to form plaques and the number of plaques in each well was counted.
(§6) The test compounds were FAS, and the compound of formula [I] where R^1 is hydroxy. The final concentration of the compound in the solution was set to 100, 25, 6.3 and 1.6 μg/ml, respectively. Each test group included 2 wells and a mean of the plaque numbers was obtained.

Acute toxicity in rats = test: Acute toxicity in rats; parameters: species or system rat (Jcl: Wistar, 5 weeks); conditions: rat, in vivo
Experimental: as §1

parainfluenza virus = test: Inhibitory action for plaque formation of parainfluenza virus; type: cell-based; conditions: mean of two, control 51.5
Experimental: as §2, §3, §4, §5, §6

[4] = system: HIV-1 (LAV-1) persistently infected MOLT-4 cells with non-infected MOLT-4 cells; test: Inhibitory activity of HIV syncytia formation: HIV-1 chronic-phase infection; type: cell-based
Experimental: b) Activity of the medicament on HIV-1 chronic-phase infection:
Cells obtained by culturing MOLT-4 (culture condition: 37° C., 5% CO2 /95% air, RPMI medium (GIBCO Corp.) containing 10% FBS) were adjusted to a preferable number of cells (1×10^5 cells/50 μl). HIV-1 (LAV-1) preparation, 50 μl was added to the cell suspension, 50 μl and subjected to a mixing culture (infectious condition of HIV-1 to MOLT-4: M.O.I.=1). The infected cell mixture was cultured by exchanging a fresh culture medium every 3 days at a volume rate of 2:5. The culture was continued for more than 1 month to prepare persistent infected cells. The concentration of the persistent infected cells was adjusted to a preferable number of cells (1×10^5 cells/50 μl ) (the persistent infected cell preparation).
Cell preparation without infection was prepared by culturing MOLT-4 (culture condition: 37° C., 5% CO2 /95% air, RPMI medium (GIBCO Corp.) containing 10% FBS) and adjusting the concentration to a preferable number of cells (1×10^5 cells/50 μl).
The persistent infected cell preparation, 50 μl, was placed in the wells of a 96 hole microplate and the non-infected cell preparation, 50 μl, was added therein and cultured for 48 hours. Numbers of the formed syncytia were counted microscopically.
Each compound solution tested was added, 100 μl, at the time of mixing the persistent infected cell preparation with the non-infected cell preparation, to provide the final concentrations shown in FIG. 2 (medicament added test group).
The no-medicament-added group (control group) was prepared by replacing the compound solution, 100 μl.

C kinase = conditions: Cranial Nerve, 45 (9), 819-824, 1993; cited from earlier work

Question: What does the source list for `Cl.O=S(=O)(c1cccc2cnccc12)N1CCCNCC1` [FAS, hexahydro-1-(5-isoquinoline-sulfonyl)-1H-1,4-diazepine hydrochloride]?
Answer: effect on blood coagulation time (APTT, PT) (rabbit plasma): no effect on blood coagulation time; PT (rabbit plasma; 10 μM): 7.1 ± 0.6 s; APTT (rabbit plasma; 10 μM): 16.4 ± 0.8 s; PT (rabbit plasma; 30 μM): 7.1 ± 0.5 s; APTT (rabbit plasma; 30 μM): 16.0 ± 0.8 s; PT (rabbit plasma; 100 μM): 7.6 ± 0.9 s; APTT (rabbit plasma; 100 μM): 16.3 ± 0.8 s; myosin light chain kinase inhibition [1]: myosin light chain kinase inhibition; LD50 (Acute toxicity in mice): 63.7 mg/kg; inhibitory activity for Env expression [2]: strong inhibitory activity for Env expression; Plaque No. ([3]; 1.6 μg/ml): 51; Plaque No. ([3]; 6.3 μg/ml): 46; Plaque No. ([3]; 25 μg/ml): 49; Plaque No. ([3]; 100 μg/ml): 0; LD50 (Acute toxicity in rats; iv, i. v., female): 63.9 mg/kg; LD50 (Acute toxicity in rats; iv, i. v., male): 59.9 mg/kg; LD50 (Acute toxicity in rats; po, p. o., female): 348 mg/kg; LD50 (Acute toxicity in rats; po, p. o., male): 335 mg/kg; LD50 (Acute toxicity in rats; sc, s. c., female): 128 mg/kg; LD50 (Acute toxicity in rats; sc, s. c., male): 123 mg/kg; Plaque No. (parainfluenza virus; 6.3 μg/ml): 50.5; Plaque No. (parainfluenza virus; 25 μg/ml): 36; Plaque No. (parainfluenza virus; 100 μg/ml): 3.5; viral transmission from persistent infected cells to non-infected cells [4]: suppressed; inhibitory activity for syncytium formation ([4]; FIG. 2, 48 hours): extremely high suppressive action on syncytium formation; minimal effective concentration ([4]; Human immunodeficiency virus 1, MOLT-4, 48 hours, persistent infected cells mixed with non-infected cells, read-out: concentration showing inhibitory activity for syncytium formation): ≥ 3.75 µM; C kinase inhibition (C kinase): C kinase inhibition
